# Article PMC12186298, “Phase 1 clinical trial of eneboparatide, a novel PTH receptor 1 agonist” (Endocrine Connections, 2025)
# Peptide text beside a SMILES is read from it.
# How the values were obtained:
# [1] = test system: healthy subjects; experiment: Pharmacodynamics (serum calcium, phosphorus, endogenous PTH, urine, bone markers), Part B MAD; assay type: in vivo, human
# Description: Blood samples were taken on day 1 at pre-dose, at several time points post-dose up to day 4 and at FU (Part A), on day 1–14 (pre-dose), and day 15–17 and at FU (Part B) for the analysis of total sCa, albumin-adjusted serum calcium (ADsCa), and sPh. These parameters were also measured on day 1, 7 and 14 at several time points post-dose. Samples for serum creatinine were taken at predefined time points to allow for calculation of fractional excretion of calcium (FECa). Endogenous serum PTH(1–84) was measured on day 1 (pre-dose and 12 h post-dose), day 2–4 and at FU (Part A), on pre-dose on day 1, 7, and 14 and on day 15–17 and FU (Part B). In Part B, additional blood samples were taken on day 1, day 14 and at FU for the analysis of serum bone turnover biomarkers, including carboxy-terminal telopeptide of type I collagen (s-CTx), and procollagen type 1 amino-terminal propeptide (P1NP).
# Urine collection was performed over 24 h for the analysis of calcium and creatinine on day 1–3 and at FU (Part A) and day 1, day 7, day 14 and at FU (Part B). FECa (%) was calculated by the formula: FECa = (urine calcium/serum calcium)/(urine creatinine/serum creatinine).
# [2] = test system: healthy subjects; experiment: Safety and tolerability, adverse events, Part B MAD
# Description: A total of five sequential cohorts were included in Part B with ten subjects in each cohort (eight receiving eneboparatide at a dose of 10, 20, 40, 60 and 80 μg/day, respectively, and two receiving placebo in a randomized and double-blind manner). […] They were resident in the study unit until day 17 and FU evaluation was performed on day 21–25.
# (§1) Safety and tolerability assessments consisted of adverse events (AEs), clinical laboratory (clinical chemistry, haematology, coagulation, and urinalysis), vital signs (blood pressure, pulse rate, respiratory rate, and temperature), 12-lead ECG (Part B), 24 h continuous cardiac monitoring (telemetry; Part A), body weight, physical examination, injection site reaction, and measurement of antidrug antibodies (ADA) in plasma (Part B).
# [3] = test system: healthy subjects; experiment: Antidrug antibodies (ADA) in plasma, Part B; assay type: in vivo, human; conditions: following 14 days of administration
# Description: as §1
# [4] = Part B, 10 μg/day sc 14 days, n = 8
# [5] = Part B, 20 μg/day sc 14 days, n = 8
# [6] = Part B, 40 μg/day sc 14 days, n = 8
# [7] = Part B, 60 μg/day sc 14 days, n = 8
# [8] = Part B, 80 μg/day sc 14 days, n = 8
# [9] = Part B, total eneboparatide, n = 40
smiles,measurement,setting,value
CC[C@H](C)[C@H](NC(=O)[C@H](CCC(=O)O)NC(=O)[C@H](C)NC(=O)[C@@H](NC(=O)[C@H](Cc1c[nH]cn1)NC(=O)[C@@H](NC(=O)[C@H](CCC(=O)O)NC(=O)[C@H](C)NC(=O)[C@@H](NC(=O)[C@H](CC(C)C)NC(=O)[C@H](CCCCN)NC(=O)[C@H](Cc1c[nH]cn1)NC(=O)[C@H](CC(C)C)NC(=O)[C@H](Cc1ccccc1)NC(=O)[C@H](C)NC(=O)[C@H](CCCNC(=N)N)NC(=O)[C@H](CCCNC(=N)N)NC(=O)[C@H](CCCNC(=N)N)NC(=O)[C@H](C)NC(=O)[C@H](CC(=O)O)NC(=O)[C@H](CCC(N)=O)NC(=O)[C@@H](NC(=O)[C@H](Cc1c[nH]c2ccccc12)NC(=O)[C@H](CCCCN)NC(=O)[C@H](C)NC(=O)[C@H](CCCNC(=N)N)NC(=O)[C@H](CCC(N)=O)NC(=O)[C@H](Cc1c[nH]cn1)NC(=O)[C@H](CCSC)NC(=O)[C@H](CC(C)C)NC(=O)[C@H](CCC(N)=O)NC(=O)[C@@H](NC(=O)[C@H](CCC(=O)O)NC(=O)[C@H](C)NC(=O)[C@@H](NC(=O)[C@H](C)N)C(C)C)[C@@H](C)CC)[C@@H](C)CC)[C@@H](C)CC)[C@@H](C)CC)[C@@H](C)O)C(=O)O [eneboparatide] (H-AVAEIQLMHQRAKWIQDARRRAFLHKLIAEIHTAEI-OH; N-terminus and C-terminus assumed),endogenous sPTH compared to placebo,[1],rapidly and dose-dependently declined
same,time for ADsCa to return to near baseline after cessation of treatment,[1]; 80 μg dose,~3 days
same,subjects with transient hypercalcaemia in whom urinary excretion of calcium remained normal,[1]; 80 μg/d,five of the six
same,mean 24 h-uCa,[1]; 14 days of treatment,not associated with an increase
same,time mean sPh remained lower compared to placebo,"[1]; after 14 days of treatment, high-dose groups (above 40 μg/day)",12 to 20 h
same,FECa,[1]; all doses,below 1.5%
same,repeated sCa measurements throughout 24 h post-dosing,"[1]; days 7 and 14, all doses",stable values with little variation
same,time for ADsCa to return to near baseline after cessation of treatment,[1]; doses up to 60 μg,approximately 2 days
same,time to stable ADsCa levels after the first administration,[1]; doses up to 60 μg,approximately 2 days
same,serum levels of P1NP and CTX,[1]; increasing doses for 14 consecutive days,did not alter
same,"Abdominal pain, subjects with TEAE",[2]; [4],0
same,"Application site irritation, subjects with TEAE",[2]; [4],0
same,"Catheter site haematoma, subjects with TEAE",[2]; [4],3
same,"Catheter site pain, subjects with TEAE",[2]; [4],1
same,"Decreased appetite, subjects with TEAE",[2]; [4],0
same,"Diarrhoea, subjects with TEAE",[2]; [4],0
same,"Dizziness, subjects with TEAE",[2]; [4],0
same,"Dry skin, subjects with TEAE",[2]; [4],0
same,"Dyspepsia, subjects with TEAE",[2]; [4],0
same,"Fatigue, subjects with TEAE",[2]; [4],2
same,"Flatulence, subjects with TEAE",[2]; [4],1
same,"Headache, subjects with TEAE",[2]; [4],1
same,"Injection site erythema, subjects with TEAE",[2]; [4],0
same,"Injection site haematoma, subjects with TEAE",[2]; [4],3
same,"Injection site pain, subjects with TEAE",[2]; [4],1
same,"Injection site pruritus, subjects with TEAE",[2]; [4],0
same,"Injection site tenderness, subjects with TEAE",[2]; [4],0
same,"Insomnia, subjects with TEAE",[2]; [4],0
same,"Muscle spasms, subjects with TEAE",[2]; [4],0
same,"Myalgia, subjects with TEAE",[2]; [4],1
same,"Nausea, subjects with TEAE",[2]; [4],0
same,"Somnolence, subjects with TEAE",[2]; [4],1
same,"Vomiting, subjects with TEAE",[2]; [4],0
same,"Abdominal pain, subjects with TEAE",[2]; [5],0
same,"Application site irritation, subjects with TEAE",[2]; [5],3
same,"Catheter site haematoma, subjects with TEAE",[2]; [5],0
same,"Catheter site pain, subjects with TEAE",[2]; [5],0
same,"Decreased appetite, subjects with TEAE",[2]; [5],0
same,"Diarrhoea, subjects with TEAE",[2]; [5],1
same,"Dizziness, subjects with TEAE",[2]; [5],1
same,"Dry skin, subjects with TEAE",[2]; [5],2
same,"Dyspepsia, subjects with TEAE",[2]; [5],1
same,"Fatigue, subjects with TEAE",[2]; [5],0
same,"Flatulence, subjects with TEAE",[2]; [5],1
same,"Headache, subjects with TEAE",[2]; [5],1
same,"Injection site erythema, subjects with TEAE",[2]; [5],1
same,"Injection site haematoma, subjects with TEAE",[2]; [5],3
same,"Injection site pain, subjects with TEAE",[2]; [5],0
same,"Injection site pruritus, subjects with TEAE",[2]; [5],2
same,"Injection site tenderness, subjects with TEAE",[2]; [5],0
same,"Insomnia, subjects with TEAE",[2]; [5],1
same,"Muscle spasms, subjects with TEAE",[2]; [5],0
same,"Myalgia, subjects with TEAE",[2]; [5],0
same,"Nausea, subjects with TEAE",[2]; [5],2
same,"Somnolence, subjects with TEAE",[2]; [5],0
same,"Vomiting, subjects with TEAE",[2]; [5],0
same,"Abdominal pain, subjects with TEAE",[2]; [6],1
same,"Application site irritation, subjects with TEAE",[2]; [6],0
same,"Catheter site haematoma, subjects with TEAE",[2]; [6],1
same,"Catheter site pain, subjects with TEAE",[2]; [6],4
same,"Decreased appetite, subjects with TEAE",[2]; [6],1
same,"Diarrhoea, subjects with TEAE",[2]; [6],2
same,"Dizziness, subjects with TEAE",[2]; [6],0
same,"Dry skin, subjects with TEAE",[2]; [6],0
same,"Dyspepsia, subjects with TEAE",[2]; [6],2
same,"Fatigue, subjects with TEAE",[2]; [6],0
same,"Flatulence, subjects with TEAE",[2]; [6],1
same,"Headache, subjects with TEAE",[2]; [6],3
same,"Injection site erythema, subjects with TEAE",[2]; [6],4
same,"Injection site haematoma, subjects with TEAE",[2]; [6],5
same,"Injection site pain, subjects with TEAE",[2]; [6],0
same,"Injection site pruritus, subjects with TEAE",[2]; [6],3
same,"Injection site tenderness, subjects with TEAE",[2]; [6],0
same,"Insomnia, subjects with TEAE",[2]; [6],1
same,"Muscle spasms, subjects with TEAE",[2]; [6],2
same,"Myalgia, subjects with TEAE",[2]; [6],4
same,"Nausea, subjects with TEAE",[2]; [6],1
same,"Somnolence, subjects with TEAE",[2]; [6],3
same,"Vomiting, subjects with TEAE",[2]; [6],0
same,"Abdominal pain, subjects with TEAE",[2]; [7],1
same,"Application site irritation, subjects with TEAE",[2]; [7],0
same,"Catheter site haematoma, subjects with TEAE",[2]; [7],0
same,"Catheter site pain, subjects with TEAE",[2]; [7],0
same,"Decreased appetite, subjects with TEAE",[2]; [7],2
same,"Diarrhoea, subjects with TEAE",[2]; [7],0
same,"Dizziness, subjects with TEAE",[2]; [7],1
same,"Dry skin, subjects with TEAE",[2]; [7],0
same,"Dyspepsia, subjects with TEAE",[2]; [7],2
same,"Fatigue, subjects with TEAE",[2]; [7],1
same,"Flatulence, subjects with TEAE",[2]; [7],1
same,"Headache, subjects with TEAE",[2]; [7],4
same,"Injection site erythema, subjects with TEAE",[2]; [7],3
same,"Injection site haematoma, subjects with TEAE",[2]; [7],3
same,"Injection site pain, subjects with TEAE",[2]; [7],2
same,"Injection site pruritus, subjects with TEAE",[2]; [7],0
same,"Injection site tenderness, subjects with TEAE",[2]; [7],2
same,"Insomnia, subjects with TEAE",[2]; [7],1
same,"Muscle spasms, subjects with TEAE",[2]; [7],0
same,"Myalgia, subjects with TEAE",[2]; [7],0
same,"Nausea, subjects with TEAE",[2]; [7],5
same,"Somnolence, subjects with TEAE",[2]; [7],3
same,"Vomiting, subjects with TEAE",[2]; [7],3
same,subjects with transient hypercalcaemia,"[2]; Part B, 80 μg/d, well-tolerated, resolved spontaneously after day 14",six of the eight
same,"Abdominal pain, subjects with TEAE",[2]; [8],0
same,"Application site irritation, subjects with TEAE",[2]; [8],0
same,"Catheter site haematoma, subjects with TEAE",[2]; [8],1
same,"Catheter site pain, subjects with TEAE",[2]; [8],1
same,"Decreased appetite, subjects with TEAE",[2]; [8],0
same,"Diarrhoea, subjects with TEAE",[2]; [8],0
same,"Dizziness, subjects with TEAE",[2]; [8],1
same,"Dry skin, subjects with TEAE",[2]; [8],0
same,"Dyspepsia, subjects with TEAE",[2]; [8],0
same,"Fatigue, subjects with TEAE",[2]; [8],0
same,"Flatulence, subjects with TEAE",[2]; [8],0
same,"Headache, subjects with TEAE",[2]; [8],1
same,"Injection site erythema, subjects with TEAE",[2]; [8],2
same,"Injection site haematoma, subjects with TEAE",[2]; [8],3
same,"Injection site pain, subjects with TEAE",[2]; [8],0
same,"Injection site pruritus, subjects with TEAE",[2]; [8],1
same,"Injection site tenderness, subjects with TEAE",[2]; [8],1
same,"Insomnia, subjects with TEAE",[2]; [8],0
same,"Muscle spasms, subjects with TEAE",[2]; [8],0
same,"Myalgia, subjects with TEAE",[2]; [8],0
same,"Nausea, subjects with TEAE",[2]; [8],4
same,"Somnolence, subjects with TEAE",[2]; [8],2
same,"Vomiting, subjects with TEAE",[2]; [8],1
same,"Abdominal pain, subjects with TEAE",[2]; [9],2 (5) n (%)
same,"Application site irritation, subjects with TEAE",[2]; [9],3 (7.5) n (%)
same,"Catheter site haematoma, subjects with TEAE",[2]; [9],5 (12.5) n (%)
same,"Catheter site pain, subjects with TEAE",[2]; [9],6 (15) n (%)
same,"Decreased appetite, subjects with TEAE",[2]; [9],3 (7.5) n (%)
same,"Diarrhoea, subjects with TEAE",[2]; [9],3 (7.5) n (%)
same,"Dizziness, subjects with TEAE",[2]; [9],3 (7.5) n (%)
same,"Dry skin, subjects with TEAE",[2]; [9],2 (5) n (%)
same,"Dyspepsia, subjects with TEAE",[2]; [9],5 (12.5) n (%)
same,"Fatigue, subjects with TEAE",[2]; [9],3 (7.5) n (%)
same,"Flatulence, subjects with TEAE",[2]; [9],4 (10) n (%)
same,"Headache, subjects with TEAE",[2]; [9],10 (25) n (%)
same,"Injection site haematoma, subjects with TEAE",[2]; [9],17 (42.5) n (%)
same,"Injection site pain, subjects with TEAE",[2]; [9],3 (7.5) n (%)
same,"Injection site pruritus, subjects with TEAE",[2]; [9],6 (15) n (%)
same,"Injection site tenderness, subjects with TEAE",[2]; [9],3 (7.5) n (%)
same,"Insomnia, subjects with TEAE",[2]; [9],3 (7.5) n (%)
same,"Muscle spasms, subjects with TEAE",[2]; [9],2 (5) n (%)
same,"Myalgia, subjects with TEAE",[2]; [9],5 (12.5) n (%)
same,"Nausea, subjects with TEAE",[2]; [9],12 (30) n (%)
same,"Somnolence, subjects with TEAE",[2]; [9],9 (22.5) n (%)
same,"Vomiting, subjects with TEAE",[2]; [9],4 (10) n (%)
same,"telemetry (Part A) or ECG (Part B), blood pressure, heart rate, respiratory rate",[2]; Parts A and B,No changes of clinical relevance
same,serious or severe AEs,"[2]; Parts A and B: single up to 120 μg, multiple up to 80 μg/day for 14 days",No serious or severe AEs were reported
same,"vomiting (mild/moderate AE associated with hypercalcaemia), subjects",[2]; highest doses tested,four out of 40
same,anti-eneboparatide antibodies,[3],no anti-eneboparatide antibodies detected
